We go through 23 compounds from PubChem BioAssay AID493059 (The Scripps Research Institute Molecular Screening Center, 2011).

The source made the active and inactive calls.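 The calls were made as follows: active = share of cells pushed into apoptosis exceeding a set limit, after 48 hr at 25 µM; inactive = the rest.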

In one experiment the test system is 2B4 cells apoptosis, DAPI nuclear morphology. The experiment can be described thus: apoptosis induction in cultured cancer cells, late-stage follow-up, MCL1-BIM inhibitor project, imaging, DAPI fluorescence, 2B4 cells (AID 493059).
Conditions: not given
In the case of `Cc1ccc(C(=O)O)cc1-c1ccc(/C=C2\SC(=O)N(CC(=O)Nc3ccc4c(c3)OCO4)C2=O)o1`, the result was inactive. Still for that read-out and setting: as for `O=C(/C=C/c1ccc(Cl)c([N+](=O)[O-])c1)Nc1ccc(N2CCCC2)cc1`, the entry is “inactive”; as for `Cc1cc(NC(=O)Cc2cccs2)no1`, “inactive”.

Staying with this experiment, now noted: at 25 µM; active compounds read high.
Turning to `c1ccc(CSc2nnc(-c3ccco3)c(-c3ccco3)n2)cc1`, the apoptosis was 14% (inactive). The same measure, in the same setting: as for `O=C(Cn1cnc2sc(-c3ccccc3)cc2c1=O)NCc1ccco1`, the figure is 3.6% (inactive). With `Nc1ccc(C(=O)NN=Cc2cc(N=Nc3cccc4ccccc34)ccc2O)cc1`, the apoptosis was 15%. With `O=C1COc2ccc(C(=O)COC(=O)/C=C/c3ccc(Br)o3)cc2N1`, the apoptosis is 3.4% (inactive). Take `COc1ccc(NC(=O)CN(C)C(=O)c2cc3c(s2)CCC3)cc1`: the apoptosis was 1.8% (inactive). The same measure, in the same setting: as for `C=CCn1c(SCC(=O)c2ccc(O)c(O)c2)nnc1-c1cccnc1`, the figure is 3.5% (inactive); as for `Cc1c(Cl)cccc1NS(=O)(=O)c1ccc2c(c1)C1C=CCC1C(c1ccc(C(=O)O)cc1)N2` (stereo not drawn), 0% (inactive). Still for that read-out and setting: as for `O=C(NN=Cc1ccc(-c2ccc(S(=O)(=O)Nc3ncccn3)cc2)o1)c1cc2ccccc2cc1O`, the figure is 18%; as for `CC(C)n1c(SCC(=O)Nc2nncs2)nnc1-c1ccco1`, 0% (inactive); as for `O=C(O)COc1ccccc1C(Nc1ccccn1)c1cc(Cl)c2cccnc2c1O` (stereo not drawn), 5.1% (inactive). `C=CCN=c1scc(-c2ccco2)n1/N=C/c1ccc(O)c(O)c1O`: the apoptosis is 98%. Still for that read-out and setting: as for `O=[N+]([O-])c1cc(CN2CCCC2)c2cccnc2c1O`, the figure is 1.7% (inactive).

With `CCOc1ccc(NC(=O)c2cccc(-n3cccc3)c2)cc1S(=O)(=O)N1CCOCC1`, the apoptosis was 6.1% (inactive). With `COC(=O)c1ccccc1NCc1cc(=O)oc2cc(O)c(O)cc12`, the apoptosis was 14% (inactive).

`CCc1sc(C(C2C(=O)CC(C)(C)CC2=O)C2C(=O)CC(C)(C)CC2=O)cc1[N+](=O)[O-]`: the apoptosis was 3.5% (inactive). On the same count and under the same terms, for `COc1ccc(-n2cccc2/C=C2\C(=N)N3N=C(c4ccco4)SC3=NC2=O)cc1` the value was 3.7% (inactive). On the same count and under the same terms, for `c1coc(-c2nc(-c3ccco3)c(-c3ccco3)nc2-c2ccco2)c1` the value was 0% (inactive). As for `Cc1cccc(NC(=O)CNC(=O)c2cccc(-n3cccc3)c2)c1C`, the apoptosis is 1.9% (inactive). Take `O=C(NN=Cc1cccc(F)c1)c1cc(-c2ccco2)nc2ccccc12`: the apoptosis is 3% (inactive). As for `COc1ccc(Cc2nnc(NC(=O)Cc3cccs3)s2)cc1OC`, the apoptosis was 0% (inactive).
